One assay has as its target VBC complex (Homo sapiens, UniProt P40337). Kind of assay: Isothermal titration calorimetry (ITC) of VHL ligands against VBC. Format: binding. Conditions: FIG. 3. The protocol:
ITC Data on the Binding of VHL Ligands 14b and 14d
Titrations were performed on an ITC200 micro-calorimeter (GE Healthcare). Compounds 14b and 14d were diluted from a DMSO stock solution to 0.6 mM in a 20 mM HEPES, 150 mM NaCl, 1 mM TCEP (pH 7) buffer. The compound was titrated against 60 μM VBC complex, equilibrated in the same buffer. Total amount of DMSO in the buffer was 3%. The data were fitted to a single binding site model to obtain the stoichiometry n, the dissociation constant Kd and the enthalpy of binding ΔH using the Microcal LLC ITC200 Origin software provided by the manufacturer.

A further assay concerns the target VHL (Homo sapiens, UniProt P40337). Particulars: as reported in Galdeano et al. 2014 and Zengerle et al. 2015; cited from earlier work.
The subject of a further assay is BRD4. Particulars: Zengerle et al. 2015; cited from earlier work.

VBC complex, sequence (P40337 54-213 limits assumed): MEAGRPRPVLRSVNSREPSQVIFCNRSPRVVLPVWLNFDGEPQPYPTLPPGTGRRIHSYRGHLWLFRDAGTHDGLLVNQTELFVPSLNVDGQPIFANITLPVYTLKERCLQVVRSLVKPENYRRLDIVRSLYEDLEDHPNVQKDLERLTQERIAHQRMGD
VBC complex, sequence (Q15370 1-104 partner limits assumed): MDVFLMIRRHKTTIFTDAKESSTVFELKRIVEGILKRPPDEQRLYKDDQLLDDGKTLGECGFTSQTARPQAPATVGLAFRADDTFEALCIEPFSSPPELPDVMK
VBC complex, sequence (Q15369 17-112 partner limits assumed): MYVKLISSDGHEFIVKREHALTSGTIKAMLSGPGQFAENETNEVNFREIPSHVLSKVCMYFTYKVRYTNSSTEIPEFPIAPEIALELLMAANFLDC
VHL, sequence (P40337 54-213 limits assumed): as the sequence (P40337 54-213 limits assumed) above
VHL, sequence (Q15370 1-104 partner limits assumed): as the sequence (Q15370 1-104 partner limits assumed) above
VHL, sequence (Q15369 17-112 partner limits assumed): as the sequence (Q15369 17-112 partner limits assumed) above

For the compound `CC(=O)N[C@H](C(=O)N1C[C@H](O)[C@H](F)[C@H]1C(=O)NCc1ccc(-c2scnc2C)cc1)C(C)(C)C` [Compound 14b], at VBC complex, binding was characterised by a dissociation constant (Kd) of 235 nM, the ΔH was -6566 cal/mol and the ΔS amounted to 8.30 cal/mol/deg.

For the compound `CC(=O)N[C@H](C(=O)N1C[C@H](O)[C@@H](F)[C@H]1C(=O)NCc1ccc(-c2scnc2C)cc1)C(C)(C)C` [Compound 14d], at VBC complex, the Kd (in general, the concentration at which binding is half-saturated) came to 235 nM; the ΔH was -6566 cal/mol; the ΔS turned out to be 8.30 cal/mol/deg.

Regarding `Cc1ncsc1-c1ccc(CNC(=O)[C@@H]2C[C@@H](O)CN2C(=O)[C@@H](NC(=O)COCCOCCOCCNC(=O)C[C@@H]2N=C(c3ccc(Cl)cc3)c3c(sc(C)c3C)-n3c(C)nnc32)C(C)(C)C)cc1` [MZ1, (2S,4R)-1-((S)-2-(tert-butyl)-17-((S)-4-(4-chlorophenyl)-2,3,9-trimethyl-6H-thieno[3,2-f][1,2,4]triazolo[4,3-a][1,4]diazepin-6-yl)-4,16-dioxo-6,9,12-trioxa-3,15-diazaheptadecanoyl)-4-hydroxy-N-(4-(4-methylthiazol-5-yl)benzyl)pyrrolidine-2-carboxamide], the “binding to VHL” value on VHL is given as “found to bind VHL”. In addition, the “removal of BRD4 over BRD2 and BRD3” value in the assay on BRD4 is “potently and rapidly induce reversible, long-lasting and unexpectedly selective removal of BRD4 over BRD2 and BRD3”.

Consider `Cc1ncsc1-c1ccc(CNC(=O)[C@@H]2C[C@H](O)CN2C(=O)[C@@H](NC(=O)COCCOCCOCCNC(=O)C[C@@H]2N=C(c3ccc(Cl)cc3)c3c(sc(C)c3C)-n3c(C)nnc32)C(C)(C)C)cc1` [cisMZ1, (2S,4S)-1-((S)-2-(tert-butyl)-17-((S)-4-(4-chlorophenyl)-2,3,9-trimethyl-6H-thieno[3,2-f][1,2,4]triazolo[4,3-a][1,4]diazepin-6-yl)-4,16-dioxo-6,9,12-trioxa-3,15-diazaheptadecanoyl)-4-hydroxy-N-(4-(4-methylthiazol-5-yl)benzyl)pyrrolidine-2-carboxamide], for which, on VHL, the “binding to VHL” value was “did not exhibit any measureable binding affinity for VHL”.

(Values after patent US11234988B2, “Fluorohydroxyproline derivatives useful in the preparation of proteolysis targeted chimeras” (UNIVERSITY OF DUNDEE, priority 2016, dated 2022).)
